From patent US11571378B2, “Skin care composition and method of using the same” (The Procter & Gamble Company, priority 2021, dated 2023)
No end group written: not given here.

How the values were obtained:
PPARA [SEQ ID NO: 2] = test: Gene Modulation Assay, PPARA expression (qPCR); assay type: cell-based
Description: (§1) This method provides a way to measure the ability of a compound or material to modulate the expression of a target gene such as PPARA [SEQ ID NO: 2] or MSMO1 [SEQ ID NO: 3]. • Cells: tert keratinocytes (tKC)
(§2) BJ Fibroblasts • Plating: Cells are plated the day before treatment. • For tert keratinocytes: 100,000 cells/well in 2 ml volume of medium/well for 12-well plates (e.g., Collagen I coated plates, Corning cat #356500), or 50,000 cells/well in 1 ml volume of medium/well for 24-well plates. • For BJ fibroblasts: 88,000 cells/well in 2 ml volume of medium/well for 12-well plates (e.g., Corning cat #3512), or 44,000 cells/well in 1 ml volume of medium/well for 24-well plates. • Medium: For tert keratinocytes: EpiLife (e.g., Thermo Fisher Scientific cat #MEPI500CA+HKGS (e.g., Thermo Fisher Scientific cat #S-001-5). • For BJ Fibroblasts: EMEM (e.g., ATCC cat #30-2003)+10% FBS (e.g., HyClone cat #SH30071.02).
(§3) Treatments are made in media and aliquoted to dose plates. When it is time to treat cells, all plates of cells are removed from the incubator at the same time. Working with one plate at a time, media is removed and treatment is added, as follows: • Media is decanted from plate of cells. • Inverted plate is blotted briefly on paper towels. • Lid is put back onto plate and plate is moved into biosafety cabinet. • Treatments are transferred from dose plate to plate of cells, one column at a time, using a multichannel pipette. Once all plates have been treated, they are moved into incubator at 37° C., with 5% CO2 and 90% humidity. About 15-30 min before the end of the treatment period, cells from representative wells of each treatment are observed via microscope, then plates are returned to the incubator. When treatment time is complete, all plates are removed from incubator. Media is decanted from each plate, and plates are blotted on paper towels. 350 ul Qiagen Buffer RLT is added to each well to lyse cells, and lysates are transferred to 2 ml Eppendorf tubes and stored at −20° C. until ready for genomics.
(§4) Cell lysates are thawed at 4° C. and then isolated using the Biomek FxP and the RNAdvance Tissue Isolation kit (Beckman Coulter, p/n A32646). The resulting RNA is quantified using the Nandrop 8000 (Nanodrop, ND-8000). cDNA is generated using 500 ng of Total RNA and Applied Biosystems High Capacity cDNA with Reverse Transcription kit (Applied Biosystems p/n 4368814). cDNA, assays, and dilutions of PrimeTime GeneExpression MasterMix (IDT, p/n ? ) are plated onto a Wafergen MyDesign SmartChip (TakaraBio, p/n 640036) using the Wafergen Nanodispenser. The chip is then loaded into the SmartChip cycler and qPCR performed using the following PCR conditions:
(§5) Hold stage: 50° C. for 2 minutes (warm up), then 95° C. for 10 minutes.
(§6) PCR stage (40 cycles): 95° C. for 15 seconds, then 60° C. for 1 minute. Export data in .txt file format for analysis.
(§7) Test compositions and control compositions were prepared as described above in the Gene Modulation Assay and tested accordingly. The pal-KT used in this example is PALESTRINA brand pal-KT from Sederma (France), and the ac-PPYL is SYNIORAGE brand tetrapeptide from BASF Care Creations (New Jersey). P+A refers to the combination of pal-KT (P), and ac-PPYL (A) [SEQ ID NO: 1].
(§8) Synergy Factor is calculated as: […]
(§9) A synergy factor greater than 1.00 with p-value ≤0.05 indicates a statistically significant synergistic effect. Preferred synergy factors are 1.3 or greater.
(§10) In this test, the amino acids from pal-KT were rearranged to form a new dipeptide, pal-TK. Test compositions and control compositions were prepared as described above in the Gene Modulation Assay and tested accordingly. Fold change factor is calculated as.
(§11) [formula] A fold change factor of greater than 1 is desired, and a fold change factor of 1.3 or greater is preferred.

MSMO1 [SEQ ID NO: 3] = test: Gene Modulation Assay, MSMO1 expression (qPCR); assay type: cell-based
Description: as §1, §2, §3, §4, §5, §6, §7, §8, §9, §10, §11

[1] = pal-KT + ac-PPYL relative to pal-TK + ac-PPYL, all peptides at 1 ppm

Substance: palmitoyl dipeptide-7 [Pal-KT]
- Fold change vs. control, Pal-KT (PPARA [SEQ ID NO: 2]; Pal-KT 1 ppm alone): 1.26
- Fold change vs. control, Pal-KT (PPARA [SEQ ID NO: 2]; Pal-KT 7.5 ppm alone): 1.43
- Fold change vs. control, Pal-KT (PPARA [SEQ ID NO: 2]; Pal-KT 15 ppm alone): 1.59
- Fold change factor (PPARA [SEQ ID NO: 2]; [1]): greater than 1.3
- Fold change vs. control, Pal-KT (MSMO1 [SEQ ID NO: 3]; Pal-KT 1 ppm alone): 4.32
- Fold change vs. control, Pal-KT (MSMO1 [SEQ ID NO: 3]; Pal-KT 7.5 ppm alone): 4.69
- Fold change vs. control, Pal-KT (MSMO1 [SEQ ID NO: 3]; Pal-KT 15 ppm alone): 5.63
- Fold change factor (MSMO1 [SEQ ID NO: 3]; [1]): greater than 1.3

Substance: acetyl tetrapeptide-11 (Ac-PPYL) [acetylated tetrapeptide ac-PPYL, available as SYNIORAGE from BASF Care Creations]
- Fold change vs. control, Ac-PPYL (PPARA [SEQ ID NO: 2]; Ac-PPYL 0.0135 ppm alone): 0.70
- Fold change vs. control, Ac-PPYL (PPARA [SEQ ID NO: 2]; Ac-PPYL 1 ppm alone): 0.69
- Fold change vs. control, Ac-PPYL (PPARA [SEQ ID NO: 2]; Ac-PPYL 13.5 ppm alone): 0.67
- Fold change vs. control, Ac-PPYL (PPARA [SEQ ID NO: 2]; Ac-PPYL 40.5 ppm alone): 0.71
- Fold change vs. control, Ac-PPYL (MSMO1 [SEQ ID NO: 3]; Ac-PPYL 0.0135 ppm alone): 0.377
- Fold change vs. control, Ac-PPYL (MSMO1 [SEQ ID NO: 3]; Ac-PPYL 1 ppm alone): 0.496
- Fold change vs. control, Ac-PPYL (MSMO1 [SEQ ID NO: 3]; Ac-PPYL 13.5 ppm alone): 0.510
- Fold change vs. control, Ac-PPYL (MSMO1 [SEQ ID NO: 3]; Ac-PPYL 40.5 ppm alone): 0.560
